From PubChem BioAssay AID1963833 (Molecular Pharmacology Branch, DTP, NCI, 2024)

Test system: 883617-216-R-J1-PDC complex spheroid viability
Assay: Anticancer human tumor 883617-216-R-J1-PDC patient-derived bladder carcinoma cell line growth inhibition [POLQ]
Details: for IC50: curve of first compound; for viability, T/C: stronger effect = lower value
Description: Multicellular complex tumor spheroid response to Polymerase (POL) inhibitors (novobiocin, ART-558, RP6685) in combination with a variety of drugs and investigational agents in selected tumor cell lines
The POL inhibitors (novobiocin, ART-558, and RP6685) were evaluated both individually and in combination with standard of care and investigational anticancer small molecules within a complex spheroid model of solid tumors. . Complex spheroids include a stromal component modeled by human endothelial cells (HUVEC) and fibroblasts modeled by human mesenchymal stem cells (MSCs). The concentration ranges selected for each drug and investigational agent were based upon clinically achievable concentrations if the clinical Cmax of the agent was known.
Compounds. The drugs and investigational agents: novobiocin (NSC847541), ART-558 (NSC835418), RP-6685 (NSC848927), peposertib (NSC802822), ceralasertib (NSC780249), elimusertib (NSC800525), camonsertib (NSC841442), AZD-1390 (NSC803789), olaparib (NSC753686), talazoparib (NSC767125), rucaparib (NSC756644), sotorasib (NSC818433), MRTX-1133 (NSC836407), SN-38 (NSC673596), topotecan (NSC609699), epotoside (NSC141540), doxorubicin (NSC123127), gemcitabine (NSC613327), 5-fluorouracil (NSC19893), paclitaxel (NSC125973), vemurafenib (NSC761431), MSA-2 (NSC828583), SN-011 (NSC837082), adavosertib (NSC754352), prexasertib (NSC758257), carboplatin (NSC241240) and oxaliplatin (NSC266046), were obtained from the National Cancer Institute (NCI) Developmental Therapeutics Program Chemical Repository (21). The FDA-approved anticancer drug set is available from the Developmental Therapeutics Program at https://dtp.cancer.gov/organization/dscb/obtaining/. […] The stock solutions were prepared in dimethyl sulfoxide (DMSO, Sigma-Aldrich, St. Louis, MO, cat. D2650), except for the platinum compounds which were prepared in saline (Quality Biological, Gaithersburg, MD, cat. 114-055-101), at 800-fold the tested concentration and stored at -70 degrees C prior to their use. All drugs and investigational agents were tested over a range starting from a high concentration at or near the clinical Cmax and decreasing in half-log increments. If the clinical Cmax for an agent had not been determined, the highest concentration tested was 10 microM, except for SN-38, which was tested at a high concentration of 1 microM.
Cell Culture. All cells were maintained in an incubator at 37 degrees C and 5% CO2 with 95% humidity. The PDC lines were cultured according to standard operating procedures established by the NCI PDMR (https://pdmr.cancer.gov). Table 3 of the manuscript, lists the cell lines along with the number of the three cell types plated to form the mct-spheroids and media for tumor cell growth. After thawing, all PDC lines, except 997537-175-T-J1-PDC and 415267-285-R-J2-PDC, were cultured in Matrigel-coated flasks prepared with a working solution of 1X Ham's F-12 nutrient mix, without supplementation (Thermo Fisher Scientific, cat. 11765054), 100 U/mL penicillin-streptomycin (Thermo Fisher Scientific, cat. 15140122), and 2.5% Matrigel (Corning Inc., Corning, NY, cat. 354248) for the first three passages. The two PDC lines 997537-175-T-J1-PDC and 415267-285-R-J2-PDC were cultured on uncoated flasks. The 857933-349-R-J2-PDC line was cultured in 6C/Colon 1B media containing advanced DMEM/F-12 (Thermo Fisher Scientific, cat. 12634028), 10 mM HEPES (Thermo Fisher Scientific, cat. 15630080), 1X GlutaMAX supplement (Thermo Fisher Scientific, cat. 35050061), 0.1 mg/mL primocin (InvivoGen, San Diego, CA, cat. ant-pm-2), 10% defined fetal bovine serum, heat inactivated (HyClone Laboratories Inc., Logan, UT, cat. SH30070.03HI), 50% L-WRN conditioned media (ATCC, cat. CRL-3276), 1.25 mM N-Acetyl-L-cysteine (Sigma-Aldrich, cat. A9165), 10 mM nicotinamide (Sigma-Aldrich, cat. N0636), 1X B-27 supplement (Thermo Fisher Scientific, cat. 17504044), 1X N-2 supplement (Thermo Fisher Scientific, cat. […]
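Note: spheroids exposed to compounds for seven days before readout.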
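Throughout, for viability, T/C: 100% = DMSO vehicle control viability.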

Question: How did the IC50 (second compound 0.0316 µM) turn out when `CCc1c2c(nc3ccc(O)cc13)-c1cc3c(c(=O)n1C2)COC(=O)[C@]3(O)CC` + COC1C(OC(N)=O)C(O)C(Oc2ccc3c(O)c(NC(=O)c4ccc(O)c(CC=C(C)C)c4)c(=O)oc3c2C)OC1(C)C was run?
Answer: Its IC50 is 98 nM.

Question: What about the IC50 (second compound 0.1 µM) of the same molecule?
Answer: Its IC50 is 104 nM.

Question: What about the IC50 (second compound 0.316 µM) of the same molecule?
Answer: Its IC50 is 60.2 nM.

Question: What about the IC50 (second compound 1 µM) of the same molecule?
Answer: Its IC50 is 78.4 nM.

Question: And the IC50 (second compound 3.16 µM)?
Answer: The IC50 was 108 nM.

Question: And the IC50 (second compound 10 µM)?
Answer: Its IC50 is 99.5 nM.

Question: What about the viability, T/C (second compound 0.0316 µM, first compound 0.00316 µM) of the same molecule?
Answer: Its viability, T/C is 63.7%.

Question: And the viability, T/C (second compound 0.0316 µM, first compound 0.01 µM)?
Answer: Its viability, T/C is 57.6%.

Question: And the viability, T/C (second compound 0.0316 µM, first compound 0.0316 µM)?
Answer: Its viability, T/C is 67.5%.

Question: What about the viability, T/C (second compound 0.0316 µM, first compound 0.1 µM) of the same molecule?
Answer: Its viability, T/C is 47.6%.

Question: And the viability, T/C (second compound 0.0316 µM, first compound 0.316 µM)?
Answer: The viability, T/C was 33.5%.

Question: What about the viability, T/C (second compound 0.0316 µM, first compound 1 µM) of the same molecule?
Answer: Its viability, T/C is 25.2%.

Question: What about the viability, T/C (second compound 0.1 µM, first compound 0.00316 µM) of the same molecule?
Answer: The viability, T/C was 58.6%.

Question: And the viability, T/C (second compound 0.1 µM, first compound 0.01 µM)?
Answer: The viability, T/C was 59.3%.

Question: What about the viability, T/C (second compound 0.1 µM, first compound 0.0316 µM) of the same molecule?
Answer: Its viability, T/C is 59.9%.

Question: What about the viability, T/C (second compound 0.1 µM, first compound 0.1 µM) of the same molecule?
Answer: The viability, T/C was 49.7%.

Question: What about the viability, T/C (second compound 0.1 µM, first compound 0.316 µM) of the same molecule?
Answer: The viability, T/C was 33.6%.

Question: And the viability, T/C (second compound 0.1 µM, first compound 1 µM)?
Answer: Its viability, T/C is 20.7%.

Question: And the viability, T/C (second compound 0.316 µM, first compound 0.00316 µM)?
Answer: Its viability, T/C is 70.1%.

Question: What about the viability, T/C (second compound 0.316 µM, first compound 0.01 µM) of the same molecule?
Answer: Its viability, T/C is 62.3%.

Question: And the viability, T/C (second compound 0.316 µM, first compound 0.0316 µM)?
Answer: The viability, T/C was 55.1%.

Question: What about the viability, T/C (second compound 0.316 µM, first compound 0.1 µM) of the same molecule?
Answer: Its viability, T/C is 49.1%.

Question: What about the viability, T/C (second compound 0.316 µM, first compound 0.316 µM) of the same molecule?
Answer: The viability, T/C was 31.6%.

Question: What about the viability, T/C (second compound 0.316 µM, first compound 1 µM) of the same molecule?
Answer: The viability, T/C was 29.7%.

Question: And the viability, T/C (second compound 1 µM, first compound 0.00316 µM)?
Answer: The viability, T/C was 68.7%.

Question: What about the viability, T/C (second compound 1 µM, first compound 0.01 µM) of the same molecule?
Answer: The viability, T/C was 59.2%.

Question: And the viability, T/C (second compound 1 µM, first compound 0.0316 µM)?
Answer: Its viability, T/C is 61.4%.

Question: What about the viability, T/C (second compound 1 µM, first compound 0.1 µM) of the same molecule?
Answer: The viability, T/C was 46.9%.

Question: And the viability, T/C (second compound 1 µM, first compound 0.316 µM)?
Answer: The viability, T/C was 33.6%.

Question: What about the viability, T/C (second compound 1 µM, first compound 1 µM) of the same molecule?
Answer: Its viability, T/C is 21.1%.

Question: What about the viability, T/C (second compound 3.16 µM, first compound 0.00316 µM) of the same molecule?
Answer: Its viability, T/C is 66.8%.

Question: And the viability, T/C (second compound 3.16 µM, first compound 0.01 µM)?
Answer: The viability, T/C was 58%.

Question: And the viability, T/C (second compound 3.16 µM, first compound 0.0316 µM)?
Answer: The viability, T/C was 60.2%.

Question: What about the viability, T/C (second compound 3.16 µM, first compound 0.1 µM) of the same molecule?
Answer: The viability, T/C was 51.8%.

Question: What about the viability, T/C (second compound 3.16 µM, first compound 0.316 µM) of the same molecule?
Answer: The viability, T/C was 35%.

Question: And the viability, T/C (second compound 3.16 µM, first compound 1 µM)?
Answer: The viability, T/C was 21.1%.

Question: What about the viability, T/C (second compound 10 µM, first compound 0.00316 µM) of the same molecule?
Answer: The viability, T/C was 71%.

Question: What about the viability, T/C (second compound 10 µM, first compound 0.01 µM) of the same molecule?
Answer: The viability, T/C was 56%.

Question: And the viability, T/C (second compound 10 µM, first compound 0.0316 µM)?
Answer: The viability, T/C was 63.3%.

Question: And the viability, T/C (second compound 10 µM, first compound 0.1 µM)?
Answer: The viability, T/C was 46.2%.

Question: And the viability, T/C (second compound 10 µM, first compound 0.316 µM)?
Answer: Its viability, T/C is 42%.

Question: And the viability, T/C (second compound 10 µM, first compound 1 µM)?
Answer: Its viability, T/C is 21.7%.
